Results on 25 molecules are retold here after patent US20250042920A1 (OCEAN UNIVERSITY OF CHINA, priority 2021, published 2025).

The target of one assay is MNK1 (Homo sapiens, UniProt Q9BUB5). Put plainly: MNK1 kinase inhibition assay (LANCE Ultra kinase activity assay, PerkinElmer). It is filed as biochemical. The settings on record: 450 μM ATP; for IC50: five concentrations 10000-1 nM; for inhibition at 1 µM: inhibition rate at 1000 nM compound, 60 min, 25° C., read-out: Inhibitory activity(1 μM) MNK1. Here is the method: (§1) MNK1 and MNK2 kinase inhibition assays were performed using LANCE Ultra kinase activity assay developed by PerkinElmer. […] The test steps are as follows: At 25° C., 1.00 ng MNK1 or 0.05 ng MNK2 was prepared with different concentrations (10000, 1000, 100, 10, 1 nM) of the tested compound to form a total volume of 10 μL reaction mixture (MNK1: 12.5 nM CREB, 450 μM ATP, 2 mM DTT, 1× buffer; MNK2: 12.5 nM CREB, 100 μM ATP, 2 mM DTT, 1×buffer), and incubation for 60 min. The reaction was terminated by adding 5 μL EDTA/Detection buffer and 5 μL Eu-CREB/Detection buffer. The ratio of HTRF signals at 615 nm and 665 nm was detected after 60 min of incubation. The inhibition rate was calculated by measuring the compounds at 1000 nM.
(§2) Then five different concentrations (10000, 1000, 100, 10, 1 nM) of the tested compounds were measured, and the IC50 value was calculated according to the inhibition rate fitting curve.

For another assay, the target named is MNK2 (Homo sapiens, UniProt Q9HBH9). Put plainly: MNK2 kinase inhibition assay (LANCE Ultra kinase activity assay, PerkinElmer). It is filed as biochemical. The settings on record: 100 μM ATP; for IC50: five concentrations 10000-1 nM; for inhibition at 1 µM: inhibition rate at 1000 nM compound, 60 min, 25° C., read-out: Inhibitory activity(1 μM) MNK2. As for the experimental part: as §1, §2
For orientation: TR-FRET usually uses a lanthanide donor and a delayed reading to cut background.

Chain of MNK1 (Q9BUB5 whole entry): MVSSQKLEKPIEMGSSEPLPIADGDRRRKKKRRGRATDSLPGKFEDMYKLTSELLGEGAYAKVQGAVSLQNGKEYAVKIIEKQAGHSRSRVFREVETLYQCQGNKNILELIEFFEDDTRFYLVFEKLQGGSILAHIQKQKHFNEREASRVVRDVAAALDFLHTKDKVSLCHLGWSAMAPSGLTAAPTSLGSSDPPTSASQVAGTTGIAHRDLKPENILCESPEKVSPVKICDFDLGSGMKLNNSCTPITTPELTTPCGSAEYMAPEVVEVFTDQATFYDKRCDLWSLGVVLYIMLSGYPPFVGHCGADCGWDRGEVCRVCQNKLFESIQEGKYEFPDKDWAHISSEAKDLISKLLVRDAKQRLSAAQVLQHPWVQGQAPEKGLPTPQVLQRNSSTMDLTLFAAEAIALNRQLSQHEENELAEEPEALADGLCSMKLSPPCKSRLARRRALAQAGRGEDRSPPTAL
Chain of MNK2 (Q9HBH9 whole entry): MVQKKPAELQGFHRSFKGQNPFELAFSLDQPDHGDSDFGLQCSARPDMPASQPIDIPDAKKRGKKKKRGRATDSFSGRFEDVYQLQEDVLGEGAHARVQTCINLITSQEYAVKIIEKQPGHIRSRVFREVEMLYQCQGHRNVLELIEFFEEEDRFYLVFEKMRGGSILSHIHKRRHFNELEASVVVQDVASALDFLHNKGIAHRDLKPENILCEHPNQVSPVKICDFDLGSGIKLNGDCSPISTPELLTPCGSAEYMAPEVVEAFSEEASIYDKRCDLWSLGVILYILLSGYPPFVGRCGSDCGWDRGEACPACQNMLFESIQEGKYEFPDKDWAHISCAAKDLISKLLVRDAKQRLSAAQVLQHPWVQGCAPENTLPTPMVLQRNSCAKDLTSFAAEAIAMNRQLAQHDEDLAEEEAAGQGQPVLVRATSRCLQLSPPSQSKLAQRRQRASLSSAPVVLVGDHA

A word on the IC50: it is the concentration that gives 50% inhibition. The low end stands for greater potency, the high end for weaker potency. Consider `CN1CCN(C(=O)c2ccc(-c3nn4c(-c5ccc([N+](=O)[O-])cc5)cnc4s3)cc2)CC1` [Compound 25, (4-methylpiperazin-1-yl)(4-(5-(4-nitrophenyl)imidazo[2,1-b][1,3,4]thiadiazol-2-yl)phenyl)methanone], for which the IC50 against MNK1 and against MNK2 was below 50 nM each time. The inhibition at 1 µM on MNK1 and on MNK2 was above 75% each time.
In the case of `CN1CCN(C(=O)c2ccc(-c3nn4c(-c5ccc(F)cc5F)cnc4s3)cc2)CC1` [Compound 26, (4-(5-(2,4-difluorophenyl)imidazo[2,1-b][1,3,4]thiadiazol-2-yl)phenyl)(4-methylpiperazin-1-yl)methanone], the inhibition at 1 µM at MNK1 and on MNK2 was 25 to 50% in each case.
Regarding `CN1CCN(C(=O)c2ccc(-c3nn4c(-c5ccc(C#N)nc5)cnc4s3)cc2)CC1` [Compound 27, 5-(2-(4-(4-methylpiperazine-1-carbonyl)phenyl)imidazo[2,1-b][1,3,4]thiadiazol-5-yl)picolinonitrile], the inhibition at 1 µM at MNK1 and at MNK2 was 25 to 50% throughout.
Turning to `CN1CCN(C(=O)c2ccc(-c3nn4c(-c5ccc(F)nc5)cnc4s3)cc2)CC1` [Compound 28, (4-(5-(6-fluoropyridin-3-yl)imidazo[2,1-b][1,3,4]thiadiazol-2-yl)phenyl)(4-methylpiperazin-1-yl)methanone], the half-maximal inhibitory concentration (IC50) is 800 to 1500 nM on MNK1 and 200 to 800 nM on MNK2. In addition, the inhibition at 1 µM on MNK1 was 50 to 75%; on MNK2 it was above 75%.
In the case of `CN1CCN(C(=O)c2ccc(-c3nn4c(-c5ccc(C(F)(F)F)nc5)cnc4s3)cc2)CC1` [Compound 29, (4-methylpiperazin-1-yl)(4-(5-(6-(trifluoromethyl)pyridin-3-yl)imidazo[2,1-b][1,3,4]thiadiazol-2-yl)phenyl)methanone], the inhibition at 1 µM on MNK1 and at MNK2 was 25 to 50% in each case.
On to `N#Cc1ccc(-c2cnc3sc(-c4ccc(C(=O)N5CCCC5)cc4)nn23)cc1` [Compound 30, 4-(2-(4-(pyrrolidine-1-carbonyl)phenyl)imidazo[2,1-b][1,3,4]thiadiazol-5-yl)benzonitrile], for which, at MNK1, the IC50 is below 50 nM and the inhibition at 1 µM was above 75%. Besides, on MNK2, the IC50 was below 50 nM and the inhibition at 1 µM is above 75%.
On to `N#Cc1ccc(-c2cnc3sc(-c4ccc(C(=O)OCCN5CCCC5)cc4)nn23)cc1` [Compound 31, 2-(pyrrolidin-1-yl)ethyl 4-(5-(4-cyanophenyl)imidazo[2,1-b][1,3,4]thiadiazol-2-yl)benzoate], for which the inhibition at 1 µM on MNK1 and at MNK2 was 25 to 50% each time.
Consider `N#Cc1ccc(-c2cnc3sc(-c4ccc(C(=O)OCCCCCO)cc4)nn23)cc1` [Compound 34, 5-hydroxypentyl 4-(5-(4-cyanophenyl)imidazo[2,1-b][1,3, 4]thiadiazol-2-yl)benzoate], for which the inhibition at 1 µM on MNK1 and on MNK2 was 25 to 50% in each case.
For `N#Cc1ccc(-c2cnc3sc(-c4ccc(C(=O)SCCO)cc4)nn23)cc1` [Compound 35, S-(2-hydroxyethyl)4-(5-(4-cyanophenyl)imidazo[2,1-b][1,3,4]thiadiazol-2-yl)benzothioate], the inhibition at 1 µM at MNK1 and on MNK2 was 25 to 50% each time.
As for `CN(C)CCNC(=O)c1ccc(-c2nn3c(-c4ccc(C#N)cc4)cnc3s2)cc1` [Compound 36, 4-(5-(4-cyanophenyl)imidazo[2,1-b][1,3,4]thiadiazol-2-yl)-N-(2-(dimethylamino)ethyl)benzamide], on MNK1, the IC50 was below 50 nM and the inhibition at 1 µM was above 75%. Also, on MNK2, the IC50 was below 50 nM and the inhibition at 1 µM was above 75%.
For `N#Cc1ccc(-c2cnc3sc(-c4ccc(C(=O)NCCCN5CCOCC5)cc4)nn23)cc1` [Compound 37, 4-(5-(4-cyanophenyl)imidazo[2,1-b][1,3,4]thiadiazol-2-yl)-N-(3-morpholinopropyl)benzamide], on MNK1, the half-inhibitory concentration (IC50) was below 50 nM and the inhibition at 1 µM is above 75%. In addition, at MNK2, the IC50 is below 50 nM and the inhibition at 1 µM was above 75%.
Regarding `N#Cc1ccc(-c2cnc3sc(-c4ccc(C(=O)NCCN5CCCC5)cc4)nn23)cc1` [Compound 38, 4-(5-(4-cyanophenyl)imidazo[2,1-b][1,3,4]thiadiazol-2-yl)-N-(2-(pyrrolidin-1-yl)ethyl)benzamide], on MNK1, the IC50 was below 50 nM and the inhibition at 1 µM is above 75%. At MNK2, the IC50 is below 50 nM and the inhibition at 1 µM is above 75%.
In the case of `N#Cc1ccc(-c2cnc3sc(-c4ccc(C(=O)NCCCO)cc4)nn23)cc1` [Compound 39, 4-(5-(4-cyanophenyl)imidazo[2,1-b][1,3,4]thiadiazol-2-yl)-N-(3-hydroxypropyl)benzamide], at MNK1, the IC50 is below 50 nM and the inhibition at 1 µM was above 75%. In addition, on MNK2, the IC50 is below 50 nM and the inhibition at 1 µM was above 75%.
On to `N#Cc1ccc(-c2cnc3sc(-c4ccc(C(=O)NCCO)cc4)nn23)cc1` [Compound 40, 4-(5-(4-cyanophenyl)imidazo[2,1-b][1,3,4]thiadiazol-2-yl)-N-(2-hydroxyethyl)benzamide], for which, at MNK1, the IC50 is below 50 nM and the inhibition at 1 µM was above 75%. Further, on MNK2, the IC50 was below 50 nM and the inhibition at 1 µM is above 75%.
In the case of `CC1CCCCN1C(=O)c1ccc(-c2nn3c(-c4ccc(C#N)cc4)cnc3s2)cc1` (stereo not shown) [Compound 41, 4-(2-(4-(2-methylpiperidine-1-carbonyl)phenyl)imidazo[2,1-b][1,3,4]thiadiazol-5-yl)benzonitrile], on MNK1, the IC50 is below 50 nM and the inhibition at 1 µM was above 75%. In addition, at MNK2, the IC50 was below 50 nM and the inhibition at 1 µM was above 75%.
`N#Cc1ccc(-c2cnc3sc(-c4ccc(C(=O)NCCCCCO)cc4)nn23)cc1` [Compound 42, 4-(5-(4-cyanophenyl)imidazo[2,1-b][1,3,4]thiadiazol-2-yl)-N-(5-hydroxypentyl)benzamide]: on MNK1, the IC50 is below 50 nM and the inhibition at 1 µM was above 75%. Further, at MNK2, the half-inhibitory concentration (IC50) is below 50 nM and the inhibition at 1 µM was above 75%.
As for `N#Cc1ccc(-c2csc3nc(-c4ccc(C(=O)N5CCOCC5)cc4)cn23)cc1` [Compound 43, 4-(6-(4-(morpholine-4-carbonyl)phenyl)imidazo[2,1-b]thiazol-3-yl)benzonitrile], the inhibition at 1 µM on MNK1 and at MNK2 was 25 to 50% each time.
With `O=C(c1ccc(-c2cn3c(-c4ccc(F)cc4)csc3n2)cc1)N1CCOCC1` [Compound 44, (4-(3-(4-fluorophenyl)imidazo[2,1-b]thiazol-6-yl)phenyl)(morpholino)methanone], the inhibition at 1 µM at MNK1 and at MNK2 was 25 to 50% in each case.
Turning to `COc1ccc(-c2csc3nc(-c4ccc(C(=O)N5CCOCC5)cc4)cn23)cc1` [Compound 45, (4-(3-(4-methoxyphenyl)imidazo[2,1-b]thiazol-6-yl)phenyl)(morpholino)methanone], the inhibition at 1 µM at MNK1 and on MNK2 was 25 to 50% throughout.
For the molecule `O=C(c1ccc(-c2cn3c(-c4ccc(C(F)(F)F)cc4)csc3n2)cc1)N1CCOCC1` [Compound 46, morpholino(4-(3-(4-(trifluoromethyl)phenyl)imidazo[2,1-b]thiazol-6-yl)phenyl)methanone], the inhibition at 1 µM on MNK1 and at MNK2 was 25 to 50% each time.
For the molecule `O=C(c1ccc(-c2cn3c(-c4ccc(Cl)cc4)csc3n2)cc1)N1CCOCC1` [Compound 47, (4-(3-(4-chlorophenyl)imidazo[2,1-b]thiazol-6-yl)phenyl)(morpholino)methanone], the inhibition at 1 µM on MNK1 and at MNK2 was 25 to 50% in each case.
`CN1CCN(C(=O)c2ccc(-c3cn4c(-c5ccc(C#N)cc5)csc4n3)cc2)CC1` [Compound 48, 4-(6-(4-(4-methylpiperazine-1-carbonyl)phenyl)imidazo[2,1-b]thiazol-3-yl)benzonitrile]: the inhibition at 1 µM at MNK1 and on MNK2 was 25 to 50% each time.
`CN1CCN(C(=O)c2ccc(-c3cn4c(-c5ccc(F)cc5)csc4n3)cc2)CC1` [Compound 49, (4-(3-(4-fluorophenyl)imidazo[2,1-b]thiazol-6-yl)phenyl)(4-methylpiperazin-1-yl)methanone]: the inhibition at 1 µM at MNK1 and at MNK2 was 25 to 50% in each case.
Consider `CN1CCN(C(=O)c2ccc(-c3cn4c(-c5ccc(C(F)(F)F)cc5)csc4n3)cc2)CC1` [Compound 50, (4-methylpiperazin-1-yl)(4-(3-(4-(trifluoromethyl)phenyl)imidazo[2,1-b]thiazol-6-yl)phenyl)methanone], for which the inhibition at 1 µM on MNK1 and on MNK2 was 25 to 50% each time.
For `CN1CCN(C(=O)c2ccc(-c3cn4c(-c5ccc(Cl)cc5)csc4n3)cc2)CC1` [Compound 51, (4-(3-(4-chlorophenyl)imidazo[2,1-b]thiazol-6-yl)phenyl)(4-methylpiperazin-1-yl)methanone], the inhibition at 1 µM at MNK1 and at MNK2 was 25 to 50% throughout.
